Data on twelve compounds can be found in PubChem BioAssay (NCI).

Some test systems named below: 786-0 renal; COLO 205 colon; HCT-15 colon; K-562 leukemia; LOX IMVI melanoma; MDA-MB-435; SF-295 CNS; U251 CNS; UO-31 renal.
Holding throughout (assay): growth of human tumour cells (NCI), 48 h

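Five concentrations, 48 hours, 96-well plates. Here, GI50 denotes the concentration required for 50% inhibition of growth. TGI marks complete inhibition of growth.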

For `CN(C)CCNc1ccc2ncn3c4ccc(O)cc4c(=O)c1c23`, the TGI in the assay with 786-0 renal stood at 13.3 µM; in the assay with COLO 205 colon, 9.32 µM; in the assay with HCT-15 colon, 10.2 µM; in the assay on K-562 leukemia, 29 µM; in the assay on LOX IMVI melanoma, 3.36 µM; in the assay with MDA-MB-435, 14.7 µM. Moreover, the TGI stood at 14 µM with SF-295 CNS, 3.97 µM in the assay with U251 CNS and 8.06 µM in the assay with UO-31 renal.

Consider `O=[N+]([O-])c1nccn1CC(O)c1ccccc1` (configuration not stated), for which the TGI with 786-0 renal, in the assay with COLO 205 colon, in the assay on HCT-15 colon, in the assay with K-562 leukemia, with LOX IMVI melanoma and with SF-295 CNS was greater than 100 µM each time. Also, the TGI in the assay on U251 CNS and in the assay with UO-31 renal was greater than 100 µM throughout.

With `CCOC(=O)C12CCCC1(O)N(NC(=O)OC)C(C)=C2C(=O)OC` (configuration not stated), the TGI with 786-0 renal is 92.2 µM; in the assay on COLO 205 colon, greater than 100 µM; with HCT-15 colon it was greater than 100 µM; with K-562 leukemia it was greater than 100 µM; with LOX IMVI melanoma, greater than 100 µM; with SF-295 CNS, greater than 10 µM. The TGI in the assay on U251 CNS and with UO-31 renal was greater than 100 µM each time.

Turning to `CSc1cc([C@@H]2C[C@H]2c2ccc(Cl)cc2)on1`, the GI50 in the assay with 786-0 renal is 15 µM; in the assay on COLO 205 colon, 23.9 µM; in the assay with HCT-15 colon, 10.8 µM; in the assay with K-562 leukemia it was 35.1 µM; in the assay on LOX IMVI melanoma it was 3.99 µM; with MDA-MB-435 it was 16.8 µM. The GI50 in the assay on SF-295 CNS was 34.1 µM; in the assay on U251 CNS, 9.24 µM; with UO-31 renal, 21.6 µM. Moreover, the TGI in the assay on 786-0 renal is 55.3 µM; in the assay on COLO 205 colon, greater than 100 µM; in the assay with HCT-15 colon, 36.9 µM; in the assay on K-562 leukemia, greater than 100 µM; in the assay with LOX IMVI melanoma, 19.9 µM; in the assay on MDA-MB-435, 45.1 µM. Further, the values for the TGI with SF-295 CNS, in the assay with U251 CNS and with UO-31 renal were 69.2 µM, 32.3 µM and greater than 100 µM, respectively.

For the compound `Cc1cccc(-c2nnc3s/c(=C\c4ccc(N(C)C)cc4)c(=O)n23)c1`, the TGI in the assay with 786-0 renal, with COLO 205 colon, with K-562 leukemia, in the assay on LOX IMVI melanoma, in the assay with SF-295 CNS and in the assay with U251 CNS was greater than 100 µM throughout. Also, the TGI in the assay on UO-31 renal was greater than 100 µM.

On to `O=C(CC1(O)C(=O)Nc2c(Cl)cc(Cl)cc21)c1ccccc1` (configuration not stated), for which the TGI in the assay with 786-0 renal, in the assay with COLO 205 colon, in the assay with HCT-15 colon, in the assay on K-562 leukemia, with LOX IMVI melanoma and in the assay on SF-295 CNS was greater than 100 µM throughout. The compound also displayed a TGI in the assay on UO-31 renal greater than 100 µM.

On to `Nc1nc(=O)n(C2CCC(CO)O2)cc1F` (configuration not stated), for which the TGI in the assay on 786-0 renal, in the assay with COLO 205 colon, in the assay with HCT-15 colon, in the assay on K-562 leukemia, in the assay on LOX IMVI melanoma and in the assay on SF-295 CNS was greater than 100 µM each time. The TGI in the assay on U251 CNS and in the assay with UO-31 renal was greater than 100 µM throughout.

With `CSC(=NC(=O)c1ccccc1Cl)SCCSC(=NC(=O)c1ccccc1Cl)SC`, the TGI with 786-0 renal, in the assay on COLO 205 colon, in the assay with HCT-15 colon, in the assay on K-562 leukemia, in the assay on LOX IMVI melanoma and with SF-295 CNS was greater than 100 µM throughout. For the same compound, the TGI in the assay on U251 CNS and in the assay on UO-31 renal was greater than 100 µM in each case.

For the compound `COc1ccc2c(c1)c(-c1nc(-c3cn(C)c4ccncc34)cs1)cn2C`, the GI50 in the assay with 786-0 renal is 1.6 µM; in the assay on HCT-15 colon, 1.54 µM; in the assay on K-562 leukemia, 1.9 µM; with MDA-MB-435, 1.59 µM; in the assay on SF-295 CNS it was 1.66 µM; in the assay on U251 CNS, 1.85 µM. The GI50 in the assay on UO-31 renal was 1.58 µM. For the same compound, the TGI with 786-0 renal is 3.15 µM; in the assay with HCT-15 colon, 3.33 µM; with K-562 leukemia, 4.2 µM; in the assay with MDA-MB-435, 2.97 µM; with SF-295 CNS, 3.16 µM; in the assay on U251 CNS, 3.4 µM. The same compound displayed a TGI in the assay on UO-31 renal of 3.17 µM.

For `COc1ccccc1C#Cc1ccccc1C#Cc1ccc(OCCCCCCOc2ccccc2C#Cc2ccccc2C#Cc2ccccc2OC)cc1`, the GI50 in the assay with 786-0 renal, with COLO 205 colon, in the assay on HCT-15 colon, in the assay with K-562 leukemia, in the assay on LOX IMVI melanoma and in the assay with MDA-MB-435 was greater than 100 µM throughout. The GI50 in the assay on SF-295 CNS, with U251 CNS and with UO-31 renal was greater than 100 µM throughout. The TGI in the assay on 786-0 renal, in the assay on COLO 205 colon, in the assay with HCT-15 colon, in the assay on K-562 leukemia, in the assay with LOX IMVI melanoma and in the assay with MDA-MB-435 was greater than 100 µM in each case. In addition, the TGI with SF-295 CNS, in the assay with U251 CNS and in the assay on UO-31 renal was greater than 100 µM throughout.

Turning to `CC1=C([Te]c2ccccc2)C(=O)c2ccccc2C1=O`, the GI50 in the assay with 786-0 renal was 2.01 µM; with COLO 205 colon, 0.457 µM; in the assay on HCT-15 colon, 0.346 µM; in the assay with K-562 leukemia, 1.07 µM; in the assay with LOX IMVI melanoma it was 0.311 µM; in the assay on MDA-MB-435, 1.8 µM. For the same compound, the GI50 in the assay with SF-295 CNS was 0.24 µM; in the assay on U251 CNS it was 0.331 µM; in the assay with UO-31 renal, 0.246 µM. The TGI is 3.96 µM in the assay on 786-0 renal; 1.45 µM in the assay on COLO 205 colon; 1.56 µM in the assay on HCT-15 colon; 3.4 µM in the assay with K-562 leukemia; 1.49 µM in the assay with LOX IMVI melanoma; 4.02 µM with MDA-MB-435. Moreover, the results for the TGI with SF-295 CNS, in the assay on U251 CNS and in the assay with UO-31 renal were 0.697 µM, 1.56 µM and 1.12 µM, respectively.

As to `Cc1cc(OCc2nnc3n2S(=O)(=O)c2ccccc2N3C)ccc1Cl`, the TGI in the assay on 786-0 renal is 32.7 µM; in the assay with COLO 205 colon it was greater than 100 µM; in the assay on HCT-15 colon, greater than 100 µM; with K-562 leukemia, greater than 100 µM; in the assay on LOX IMVI melanoma it was greater than 100 µM; with MDA-MB-435, greater than 100 µM. Further, the TGI in the assay with SF-295 CNS was 50.2 µM; in the assay with U251 CNS it was 43.6 µM; with UO-31 renal it was greater than 100 µM.
